Laboratory results as given in US11214594B2, “Antimicrobial peptide having synergistic antibacterial effect with antibiotics on multidrug resistant bacteria, and use thereof” (priority 2016, dated 2022).
Values after ≈ are worked out from the molar mass of the structure shown. Where a SMILES comes first, the peptide text is derived from it. [ ]: non-standard residue; d: D form.

Columns and labels:
S. typhimurium = experiment: microbe, parasite or virus in culture; format: cell-based, Salmonella typhimurium
Procedure: (§1) For the antibacterial activity, a minimal inhibitory concentration (MIC) of a peptide in which fungus bodies were not split in an MH medium with sufficient nutrients was measured.
(§2) Specifically, the strains described in the following [Table 2] were purchased and diluted with an MH medium such that the number of bacteria was 2×10^6 colony-forming units (CFUs), 100 μl of each of the diluted strains was aliquoted into a 96-well microtiter plate, and then 100 μl of a peptide solution diluted with the MH medium (solution diluted stepwise at 2: 1) was added to each well.

S. aureus = experiment: microbe, parasite or virus in culture; format: cell-based, Staphylococcus aureus
Procedure: as §1, §2

MDRAB 12035 = experiment: microbe, parasite or virus in culture; format: cell-based, Acinetobacter baumannii
Procedure: as §1, §2

A. baumannii [1] = experiment: microbe, parasite or virus in culture; format: cell-based, Acinetobacter baumannii
Procedure: as §1, §2

A. baumannii [2] = experiment: MIC of antibiotic during combined treatment with antimicrobial peptide; format: cell-based, Acinetobacter baumannii; conditions: A. baumannii
Procedure: Thereafter, the MIC value of each mixed solution was determined by diluting the antibiotic solution with the MH medium, adding 50 μl of the diluted solution to each well, and performing an experiment even under a reversed condition.

MDREC 1229 = experiment: as above; format: cell-based, Escherichia coli
Procedure: Specifically, the strains described in [Table 2] were prepared and diluted with an MH medium such that the number of bacteria was 2×10^6 colony-forming units (CFUs) per 1 ml, 100 μl of the diluted strains was each aliquoted into a 96-well microtiter plate, and then 50 μl of a peptide solution diluted with the MH medium from the MIC value (solution diluted stepwise at 2: 1) was added to each well. Thereafter, the MIC value of each mixed solution was determined by diluting the antibiotic solution with the MH medium, adding 50 μl of the diluted solution to each well, and performing an experiment even under a reversed condition.

[3] = combined with peptide at 1 μg/ml
[4] = combined with peptide at 2 μg/ml
[5] = combined with peptide at 4 μg/ml
[6] = combined with peptide at 6 μg/ml
[7] = combined with peptide at 8 μg/ml
[8] = combined with peptide at 16 μg/ml
[9] = combined with peptide at 32 μg/ml
[10] = combined with peptide at 64 μg/ml
[11] = peptide treatment concentration 1 μg/ml
[12] = peptide treatment concentration 2 μg/ml
[13] = peptide treatment concentration 4 μg/ml
[14] = peptide treatment concentration 6 μg/ml
[15] = peptide treatment concentration 8 μg/ml
[16] = peptide treatment concentration 16 μg/ml
[17] = peptide treatment concentration 32 μg/ml
[18] = peptide treatment concentration 64 μg/ml

CC[C@H](C)[C@H](NC(=O)[C@H](CCCCN)NC(=O)[C@H](Cc1c[nH]c2ccccc12)NC(=O)[C@@H](N)CCCNC(=N)N)C(=O)N[C@@H](Cc1ccccc1)C(=O)N[C@@H](CCCCN)C(=O)N[C@@H](CCCCN)C(=O)N[C@H](C(=O)N[C@H](CCCCN)C(=O)N[C@@H](CCCCN)C(=O)N[C@@H](CC(C)C)C(=O)N[C@@H](CC(C)C)C(=O)N[C@@H](Cc1c[nH]cn1)C(=O)N[C@@H](CCCCN)C(=O)N[C@@H](C)C(=O)N[C@@H](CCCCN)C(=O)N[C@@H](CCCCN)C(=O)N[C@@H](Cc1c[nH]c2ccccc12)C(N)=O)[C@@H](C)CC [PapMA-18, RWK IFK KIk KLL HKA KKW-NH2] (H-RWKIFKKI[dK]KLLHKAKKW-NH2; N-terminus assumed)
Minimal inhibitory concentration MIC (S. typhimurium): 32 µg/mL (≈ 13.5 µM)
Minimal inhibitory concentration MIC (S. aureus): >128 µg/mL
Minimal inhibitory concentration MIC (MDRAB 12035): 32 µg/mL (≈ 13.5 µM)
Peptide MIC, peptide alone (MDRAB 12035): 32 µg/mL
Minimal inhibitory concentration MIC (A. baumannii [1]): 32 µg/mL (≈ 13.5 µM)
Peptide MIC, peptide alone (A. baumannii [1]): 32 µg/mL
Antibiotic MIC, Erythromycin (A. baumannii [2]; [3]): 32 µg/mL
Antibiotic MIC, Linezolid (A. baumannii [2]; [3]): >128 µg/mL
Antibiotic MIC, Vancomycin (A. baumannii [2]; [3]): >128 µg/mL
Antibiotic MIC, Erythromycin (A. baumannii [2]; [4]): 32 µg/mL
Antibiotic MIC, Linezolid (A. baumannii [2]; [4]): 128 µg/mL
Antibiotic MIC, Vancomycin (A. baumannii [2]; [4]): >128 µg/mL
Antibiotic MIC, Erythromycin (A. baumannii [2]; [5]): 16 µg/mL
Antibiotic MIC, Linezolid (A. baumannii [2]; [5]): 64 µg/mL
Antibiotic MIC, Vancomycin (A. baumannii [2]; [5]): 128 µg/mL
Antibiotic MIC, Erythromycin (A. baumannii [2]; [6]): 2 µg/mL
Antibiotic MIC, Linezolid (A. baumannii [2]; [6]): 32 µg/mL
Antibiotic MIC, Vancomycin (A. baumannii [2]; [6]): 32 µg/mL
Antibiotic MIC, Erythromycin (A. baumannii [2]; [7]): 1 µg/mL
Antibiotic MIC, Linezolid (A. baumannii [2]; [7]): 16 µg/mL
Antibiotic MIC, Vancomycin (A. baumannii [2]; [7]): 16 µg/mL
Antibiotic MIC, Erythromycin (A. baumannii [2]; [8]): 0.5 µg/mL
Antibiotic MIC, Linezolid (A. baumannii [2]; [8]): 4 µg/mL
Antibiotic MIC, Vancomycin (A. baumannii [2]; [8]): 16 µg/mL
Antibiotic MIC, Erythromycin (A. baumannii [2]; [9]): 0 µg/mL
Antibiotic MIC, Linezolid (A. baumannii [2]; [9]): 0 µg/mL
Antibiotic MIC, Vancomycin (A. baumannii [2]; [9]): 0 µg/mL
Antibiotic MIC, Erythromycin (A. baumannii [2]; [10]): 0 µg/mL
Antibiotic MIC, Linezolid (A. baumannii [2]; [10]): 0 µg/mL
Antibiotic MIC, Vancomycin (A. baumannii [2]; [10]): 0 µg/mL
Antibiotic MIC, Erythromycin (MDREC 1229; [11]): >128 µg/mL
Antibiotic MIC, Linezolid (MDREC 1229; [11]): >128 µg/mL
Antibiotic MIC, Vancomycin (MDREC 1229; [11]): >128 µg/mL
Antibiotic MIC, Erythromycin (MDREC 1229; [12]): 32 µg/mL
Antibiotic MIC, Linezolid (MDREC 1229; [12]): >128 µg/mL
Antibiotic MIC, Vancomycin (MDREC 1229; [12]): >128 µg/mL
Antibiotic MIC, Erythromycin (MDREC 1229; [13]): 16 µg/mL
Antibiotic MIC, Linezolid (MDREC 1229; [13]): 64 µg/mL
Antibiotic MIC, Vancomycin (MDREC 1229; [13]): >128 µg/mL
Antibiotic MIC, Erythromycin (MDREC 1229; [14]): 4 µg/mL
Antibiotic MIC, Linezolid (MDREC 1229; [14]): 32 µg/mL
Antibiotic MIC, Vancomycin (MDREC 1229; [14]): 32 µg/mL
Antibiotic MIC, Erythromycin (MDREC 1229; [15]): 2 µg/mL
Antibiotic MIC, Linezolid (MDREC 1229; [15]): 16 µg/mL
Antibiotic MIC, Vancomycin (MDREC 1229; [15]): 16 µg/mL
Antibiotic MIC, Erythromycin (MDREC 1229; [16]): 1 µg/mL
Antibiotic MIC, Linezolid (MDREC 1229; [16]): 8 µg/mL
Antibiotic MIC, Vancomycin (MDREC 1229; [16]): 8 µg/mL
Antibiotic MIC, Erythromycin (MDREC 1229; [17]): 0.5 µg/mL
Antibiotic MIC, Linezolid (MDREC 1229; [17]): 4 µg/mL
Antibiotic MIC, Vancomycin (MDREC 1229; [17]): 4 µg/mL
Antibiotic MIC, Erythromycin (MDREC 1229; [18]): 0 µg/mL
Antibiotic MIC, Linezolid (MDREC 1229; [18]): 0 µg/mL
Antibiotic MIC, Vancomycin (MDREC 1229; [18]): 0 µg/mL
